We go through 25 compounds from patent US20230210853A1 (Halia Therapeutics, Inc., priority 2020, published 2023).

Molecules are shown by their SMILES. Some results are limits rather than exact numbers.

The term IC50 denotes the concentration that inhibits the measured activity by half.

The first experiment deals with T1, full-length recombinant human NEK7 (Homo sapiens, UniProt Q8TDX7).
T1 construct: full-length recombinant human NEK7; GST (N); purchased SignalChem N09-10G; host or cells: Sf9 insect cells (baculovirus)
T1 sequence (Q8TDX7 whole entry): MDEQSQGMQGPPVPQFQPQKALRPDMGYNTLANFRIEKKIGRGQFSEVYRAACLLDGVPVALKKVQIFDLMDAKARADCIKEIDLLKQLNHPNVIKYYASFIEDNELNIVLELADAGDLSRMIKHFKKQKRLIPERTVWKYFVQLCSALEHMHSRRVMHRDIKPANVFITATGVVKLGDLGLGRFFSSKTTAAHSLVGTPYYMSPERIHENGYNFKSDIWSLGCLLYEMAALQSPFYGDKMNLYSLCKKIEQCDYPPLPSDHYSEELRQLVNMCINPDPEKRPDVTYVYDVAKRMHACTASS
The experiment is described as follows: NEK7 enzymatic assay ([33P]-ATP, casein substrate). The format is biochemical. As to conditions: Table 2a; recombinant human NEK7, casein substrate. The procedure:
In some embodiments, the IC50 of the compounds of Structure (I), (Ia), (Ib), (Ic), (Id), (Ie), or (If) to inhibit NEK7 was determined by the concentration of the compound required to inhibit 50% of the activity of the NEK kinase.
(§1) Casein substrate (from bovine milk, hydrolyzed and partially dephosphorylated mixture of α, β and κ caseins, obtained from Sigma Aldrich, catalogue #C4765, diluted in distilled water to a final concentration of 1 mg/mL) and full-length recombinant human NEK7 (expressed by baculovirus in Sf9 insect cells using a N-terminal GST tag, obtained from SignalChem, catalogue #N09-10G, 0.1 μg/μL) were mixed in assay buffer (20 mM Hepes pH 7.5, 10 mM MgCl2, 1 mM EGTA, 0.02% Brij35, 0.02 mg/ml BSA, 0.1 mM Na3 VO4, 2 mM DTT, 1% DMSO). Compounds of interest (serial 3-fold dilution in DMSO from 10 μM to 0.5 nM) or vehicle (1% DMSO) were dispensed into the kinase reaction mixture by Acoustic technology (Echo550, nanoliter range). After incubation at room temperature for 20 minutes, the kinase reaction was initiated by addition of [^33P]-ATP (specific activity 10 μCi/μl) and the mixture was incubated at room temperature for 2 hours. The reaction was then stopped by spotting the reaction mixture on strips of phosphocellulose P81 paper. Following washing, the radioactivity of the P81 paper was measured and kinase activity data were expressed as the percent remaining kinase activity in test samples compared to vehicle reactions. IC50 values and curve fits were obtained using Prism (GraphPad Software).
as §1, with “μg/L)” for “μg/μL)”, “Na3VO4,” for “Na3 VO4,”, “(Echo550;” for “(Echo550,”
Regarding `CC(C)(C)c1cc(NC(=O)Nc2ccc(-c3nn(C4CCC(O)CC4)c4ncnc(N)c34)cc2F)on1` (stereo not shown) [Ia-15], the IC50 was less than 0.15 µM. Still for that read-out and setting: the result for `CC(C)(C)c1cc(NC(=O)Nc2ccc(-c3nn(C4CC4)c4ncnc(N)c34)cc2)on1` [Ia-20, 1-(4-(4-amino-1-cyclopropyl-1H-pyrazolo[3,4-d]pyrimidin-3-yl)phenyl)-3-(3-(tert-butyl)isoxazol-5-yl)urea] reads less than 0.15 µM; that for `CC(C)(C)c1cc(NC(=O)Nc2ccc(-c3nn(C4CC4)c4ncnc(N)c34)cc2F)sn1` [Ia-35, 1-(4-(4-amino-1-cyclopropyl-1H-pyrazolo[3,4-d]pyrimidin-3-yl)-2-fluorophenyl)-3-(3-(tert-butyl)isothiazol-5-yl)urea], 0.501 to 1.5 µM. On the same count and under the same terms, as for `Nc1ncnc2c1c(-c1ccc(NC(=O)Nc3cc(C4(C(F)(F)F)CC4)no3)nc1)nn2C1COC1` [Ia-61], the figure is 0.151 to 0.3 µM. The same measure, in the same setting: as for `CC(C)(O)Cn1nc(-c2ccc(NC(=O)Nc3cc(C(C)(C)C)no3)cc2)c2c(N)ncnc21` [Ia-9, 1-(4-(4-amino-1-(2-hydroxy-2-methylpropyl)-1H-pyrazolo[3,4-d]pyrimidin-3-yl)phenyl)-3-(3-(tert-butyl)isoxazol-5-yl)urea], the figure is 0.301 to 0.5 µM.

The experiment is the same for the next values; noted with them: Table 2b; recombinant human NEK7, casein substrate.
As to `Cc1cc(NC(=O)Nc2ccc(Oc3ccnc4[nH]cc(Cl)c34)cc2F)n(-c2ccc(C#N)cc2)n1` [Ib-9, 1-(4-((3-chloro-1H-pyrrolo[2,3-b]pyridin-4-yl)oxy)-2-fluorophenyl)-3-(1-(4-cyanophenyl)-3-methyl-1H-pyrazol-5-yl)urea], the half-inhibitory concentration (IC50) is more than 1.5 µM. On the same count and under the same terms, the result for `CC(C)(C)c1cc(NC(=O)Nc2cc(F)c(Oc3ccnc4[nH]cc(Cl)c34)cc2F)n(-c2ccccc2)n1` [Ib-15] reads more than 1.5 µM; that for `CC(C)(C)c1cc(NC(=O)Nc2ccc(Oc3ccnc4[nH]ccc34)c(C(F)(F)F)c2)n(-c2ccccc2)n1` [Ib-2, 1-(4-((1H-pyrrolo[2,3-]pyridin-4-yl)oxy)-3-(TRIFLUOROMETHYL)phenyl)-3-(3-(tert-butyl)-1-phenyl-1H-pyrazol-5-yl)urea], more than 1.5 µM. On the same count and under the same terms, as for `O=C(Nc1ccc(Oc2ccnc3[nH]cc(Cl)c23)cc1F)Nc1cc(C2(C(F)(F)F)CC2)nn1-c1ccccc1` [Ib-17, 1-(4-((3-chloro-1H-pyrrolo[2,3-b]pyridin-4-yl)oxy)-2-fluorophenyl)-3-(1-phenyl-3-(1-(trifluoromethyl)cyclopropyl)-1H-pyrazol-5-yl)urea], the figure is more than 1.5 µM.

The experiment is the same for the next values; noted with them: Table 2e; recombinant human NEK7, casein substrate.
Consider `Cc1cn(-c2ccc(NC(=O)Nc3ccc(Oc4ccnc5[nH]cc(Cl)c45)cc3F)cc2C(F)(F)F)cn1` [Ie-24, 1-(4-((3-chloro-1H-pyrrolo[2,3-b]pyridin-4-yl)oxy)-2-fluorophenyl)-3-(4-(4-methyl-1H-imidazol-1-yl)-3-(trifluoromethyl)phenyl)urea], for which the IC50 was 0.301 to 0.5 µM. Still for that read-out and setting: as for `Cc1cn(-c2cc(NC(=O)Nc3ccc(Oc4ccnc5[nH]cc(Cl)c45)cc3F)cc(C(F)(F)F)c2)cn1` [Ie-3, 1-(4-((3-Chloro-1H-pyrrolo[2,3-b]pyridin-4-yl)oxy)-2-fluorophenyl)-3-(3-(4-methyl-1H-1-imidazol-1-yl)-5-(TRIFLUOROMETHYL)phenyl)urea], the figure is 0.501 to 1.5 µM. Same read-out and setting: as for `CCN1CCN(Cc2ccc(NC(=O)Nc3ccc(Oc4ccnc5[nH]cc(Cl)c45)cc3F)cc2C(F)F)CC1` [Ie-23, 1-(4-((3-chloro-1-pyrrolo[2,3-b]pyridin-4-yl)oxy)-2-fluorophenyl)-3-(3-(difluoromethyl)-4-((4-ethylpiperazin-1-yl)methyl)phenyl)urea], the figure is 0.501 to 1.5 µM. The same measure, in the same setting: as for `CN1CCCN(Cc2ccc(NC(=O)Nc3ccc(Oc4ccnc5[nH]cc(Cl)c45)cc3F)cc2C(F)(F)F)CC1` [Ie-17, 1-(4-((3-chloro-1H-pyrrolo[2,3-b]pyridin-4-yl)oxy)-2-fluorophenyl)-3-(4-((4-methyl-1,4-diazepan-1-yl)methyl)-3-(trifluoromethyl)phenyl)urea], the figure is more than 1.5 µM; as for `CN1CCN(Cc2ccc(NC(=O)Nc3ccc(Oc4ccnc5[nH]c(Cl)c(Cl)c45)cc3F)cc2C(F)(F)F)CC1` [Ie-25, 1-(4-((2,3-dichloro-1H-pyrrolo[2,3-b]pyridin-4-yl)oxy)-2-fluorophenyl)-3-(4-((4-methylpiperazin-1-yl)methyl)-3-(trifluoromethyl)phenyl)urea], 0.301 to 0.5 µM. On to `CN1CCN(c2ccc(NC(=O)Nc3ccc(Oc4ccnc5[nH]cc(Cl)c45)cc3F)cc2C(F)(F)F)CC1` [Ie-14, 1-(4-((3-chloro-1H-pyrrolo[2,3-b]pyridin-4-yl)oxy)-2-fluorophenyl)-3-(4-(4-methylpiperazin-1-yl)-3-(trifluoromethyl)phenyl)urea], for which the IC50 is more than 1.5 µM. Still for that read-out and setting: the result for `O=C(Nc1ccc(CN2CCC2)c(C(F)(F)F)c1)Nc1ccc(Oc2ccnc3[nH]cc(Cl)c23)cc1F` [Ie-31, 1-(4-(azetidin-1-ylmethyl)-3-(trifluoromethyl)phenyl)-3-(4-((3-chloro-1H-pyrrolo[2,3-b]pyridin-4-yl)oxy)-2-fluorophenyl)urea] reads more than 1.5 µM. On the same count and under the same terms, as for `Cc1cc(Oc2ccnc3[nH]cc(Cl)c23)ccc1NC(=O)Nc1ccc(CN2CCN(C)CC2)c(C(F)(F)F)c1` [Ie-29], the figure is more than 1.5 µM.

The experiment is the same for the next values; noted with them: Table 2d; recombinant human NEK7, casein substrate.
Take `Nc1ncnc2c1c(-c1ccc(NC(=O)Nc3ccc(CN4CCN(C5CC5)CC4)c(C(F)(F)F)c3)c(F)c1)cn2C1CC1` [Id-61]: the IC50 fell in the range of 0.301 to 0.5 µM. The same measure, in the same setting: the result for `CN1CCC(=Cc2ccc(NC(=O)Nc3ccc(-c4cn(C5CC5)c5ncnc(N)c45)cc3F)cc2C(F)(F)F)CC1` [Id-51, 1-(4-(4-amino-7-cyclopropyl-7H-pyrrolo[2,3-d]pyrimidin-5-yl)-2-fluorophenyl)-3-(4-((1-methylpiperidin-4-ylidene)methyl)-3-(trifluoromethyl)phenyl)urea] reads 0.501 to 1.5 µM; that for `Nc1ncnc2c1c(-c1ccc(NC(=O)Nc3ccc(CN4CCOCC4)cc3F)c(F)c1)nn2C1CC1` [Id-26, 1-(4-(4-amino-1-cyclopropyl-1H-pyrazolo[3,4-d]pyrimidin-3-yl)-2-fluorophenyl)-3-(2-fluoro-4-(morpholinomethyl)phenyl)urea], more than 1.5 µM; that for `CC1CN(C)CCN1Cc1ccc(NC(=O)Nc2ccc(-c3cn(C4CC4)c4ncnc(N)c34)cc2F)cc1C(F)(F)F` (stereo not shown) [Id-69], 0.151 to 0.3 µM.

In the case of `Cc1cc(NC(=O)Nc2ccc(-c3nn(C4CC4)c4ccnc(N)c34)cc2F)ccc1N1CCOCC1` [Id-55, 1-(4-(4-amino-1-cyclopropyl-1H-pyrazolo[4,3-c]pyridin-3-yl)-2-fluorophenyl)-3-(3-methyl-4-morpholino-phenyl)urea], the 50% inhibitory concentration (IC50) is more than 1.5 µM. Still for that read-out and setting: as for `Cc1cc(NC(=O)Nc2ccc(-c3nn(C(C)C)c4ncnc(N)c34)cc2)ccc1N1CCOCC1` [Id-1, 1-(4-(4-amino-1-isopropyl-1H-pyrazolo[3,4-J]pyrimidin-3-yl)phenyl)-3-(3-methyl-4-morpholinophenyl)urea], the figure is more than 1.5 µM.

The experiment is the same for the next values; noted with them: comparative compounds of Structure (II).
Take `CC(C)n1nc(-c2ccc3c(c2F)CCN3C(=O)Cc2cccc(OC(F)(F)F)c2)c2c(N)ncnc21` [II-7, 1-(5-(4-amino-1-isopropyl-1H-pyrazolo[3,4-d]pyrimidin-3-yl)-4-fluoroindolin-1-yl)-2-(3-(trifluoromethoxy)phenyl)ethan-1-one]: the IC50 lay in the range of 0.151 to 0.3 µM. Still for that read-out and setting: the result for `Nc1ncnc2c1c(-c1ccc3c(c1F)CCN3C(=O)Cc1cccc(C(F)(F)F)c1)nn2C1CC1` [II-4, 1-(5-(4-amino-1-cyclopropyl-1H-pyrazolo[3,4-d]pyrimidin-3-yl)-4-fluoroindolin-1-yl)-2-(3-(trifluoromethyl)phenyl)ethan-1-one] reads 0.151 to 0.3 µM.
